# In patent US20030170693A1, “Assay for identifying modulators of Borrelia telomere resolvase” (priority 2001, published 2003):
# Where two headings read alike, the source gives them in different places.
# Key:
# ResT = target: T1, ResT (Borreliella burgdorferi, UniProt O50979); test: In vitro telomere resolution by ResT (plasmid substrate, agarose gel); assay type: biochemical; conditions: for inhibition of ResT: 2 mM, data not shown; for concentration at which complete inhibition of ResT activity was observed: pYT1 as the substrate, agarose gel, FIG. 8A; for effect of peptide on in vitro ResT activity: peptide inhibitors of tyrosine recombinase or topoisomerase, FIG. 9
# T1 construct: made in house; host or cells: E. coli BL21 (lambda DE3) pLysS, strain BGC88 carrying pKK4
# T1 sequence (O50979 1-449): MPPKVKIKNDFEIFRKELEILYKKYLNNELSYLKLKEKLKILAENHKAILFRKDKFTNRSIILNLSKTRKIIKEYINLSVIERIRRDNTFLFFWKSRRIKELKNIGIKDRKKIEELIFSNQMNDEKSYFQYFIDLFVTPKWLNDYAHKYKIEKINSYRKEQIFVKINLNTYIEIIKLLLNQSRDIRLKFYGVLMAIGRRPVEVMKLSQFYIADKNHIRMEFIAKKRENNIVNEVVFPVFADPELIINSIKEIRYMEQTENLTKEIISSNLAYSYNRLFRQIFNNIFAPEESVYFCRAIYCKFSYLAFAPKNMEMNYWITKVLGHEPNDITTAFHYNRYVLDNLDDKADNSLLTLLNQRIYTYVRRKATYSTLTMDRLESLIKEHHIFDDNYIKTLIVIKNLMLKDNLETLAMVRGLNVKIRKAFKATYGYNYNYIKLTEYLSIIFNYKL
# Procedure: The activity of the purified recombinant protein (ResT) was assayed using plasmids previously established to be in vivo substrates for telomere resolution in B. burgdorferi (Chaconas et al., 2001). pGCL15-6 has a 70 bp replicated left-end telomere from the linear plasmid Ip17 (FIG. 1B). Typical reaction conditions, herein defined as 1× reaction are as follows: 25 mM Tris-HCl [pH 8.5], 100 mM NaCl, 1 mM EDTA, 5 mM spermidine, 100 μg/ml bovine serum albumin, 5 μg/ml substrate DNA and 2 μg/ml ResT. Reactions (typically 30 μl) were incubated at 30° C. for 30 min and terminated by addition of SDS to a final concentration of 0.5%. Spermidine contributes an approximate 3-fold stimulation to the reaction and was therefore omitted from the reactions used for cleavage site determination. Linearized and relaxed plasmid substrates were prepared in 10-20 μg batches by reaction with the specified restriction enzyme with the manufacturers buffers or with Shope Fibroma Virus topoisomerase I (gift of Dr. David Evans, University of Guelph), in ResT reaction buffer. These reactions were then extracted with phenol/chloroform, chloroform alone, and subsequently ethanol precipitated and resuspended in 25 mM Hepes-NaOH [pH 7.6], 0.1 mM EDTA.
# Reactions were performed containing increasing amounts of the topoisomerase inhibitors coumermycin A1 or novobiocin. The reactions were analyzed by agarose gel electrophoresis followed by staining with ethidium bromide.
# In vitro ResT activity was assayed in the presence of peptide inhibitors provided by Dr. Anca Segall, San Diego State University. These peptides were previously characterized as inhibitors of tyrosine recombinase or topoisomerase activity (Cassell et al., 2000; Klemm et al., 2000). […] The results also raise the possibility for further development of peptide inhibitors of ResT for therapeutic and/or environmental agents to inhibit growth of Borrelia species.
# [1] = test system: B. burgdorferi strain (NGR) carrying a triple mutation in the gyrB gene; test: Growth of B. burgdorferi strain (NGR) carrying coumarin-resistant gyrase in culture; assay type: cell-based, Borrelia burgdorferi; conditions: read-out: IC50, inhibition of growth of B. burgdorferi carrying the resistant gyrase
# Procedure: To determine whether coumermycin Al and novobiocin could block growth of B. burgdorferi in culture, a B. burgdorferi strain (NGR) carrying a triple mutation in the gyrB gene (Knight et al., 2000; Rosa et al., 1996) was used (provided by Dr. D. Scott Samuels, University of Montana, Missoula). The triple mutation in the gyrase B subunit renders the mutant DNA gyrase resistant to coumermycin A1 and novobiocin. B. burgdorferi carrying the resistant gyrase was grown in the absence, or in the presence of increasing amounts of coumermycin A1 or novobiocin. […] The drug concentrations for complete inhibition of growth were almost identical to the concentrations of both drugs required for complete inhibition of ResT in vitro.
molecule,measurement,setting,value
CC[C@@]1(O)C(=O)OCc2c1cc1n(c2=O)Cc2cc3ccccc3nc2-1 [camptothecin],inhibition of ResT,ResT,did not inhibit
CCn1cc(C(=O)O)c(=O)c2ccc(C)nc21 [nalidixic acid],inhibition of ResT,ResT,did not inhibit
CO[C@@H]1[C@@H](OC(N)=O)[C@@H](O)[C@H](Oc2ccc3c(O)c(NC(=O)c4ccc(O)c(CC=C(C)C)c4)c(=O)oc3c2C)OC1(C)C [novobiocin],IC50,[1]; Borreliella burgdorferi,255 µM
same,concentration at which complete inhibition of ResT activity was observed,ResT,1 mM
NCCCCNCCCN [spermidine],stimulation of the in vitro telomere resolution reaction,ResT; 5 mM spermidine in 1× reaction,~3 fold
Peptide #52: peptide which traps the Holliday junction intermediate in λ recombination (WKHYNY; Peptide #52),effect of peptide on in vitro ResT activity,ResT,did not have any effect
coumermycin A1,IC50,"[1]; gyrB triple mutant strain NGR, FIG. 8B",75 µM
same,concentration at which complete inhibition of ResT activity was observed,ResT,0.15 mM
peptide #59: peptide which inhibits DNA cleavage by λ integrase (KWWCRW; Peptide #59),effect of peptide on in vitro ResT activity,ResT,mild stimulator
